Test results: patent publication US20200017496A1 (priority 2017, published 2020)
Like-named read-outs stand apart in the source and are kept apart here.

System: Escherichia coli (ECO) isolates
Test: MIC of compounds alone and combined with antibacterials, broth microdilution (CLSI)
Format: cell-based
Conditions: Escherichia coli
Method in brief: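 Compound MIC, and antibacterial MIC at each fixed compound level, taken by visual inspection as lowest concentration stopping growth. Inoculum: log-phase bacteria, final 5·10^5 CFU/mL, cation-adjusted Mueller-Hinton broth; 16-20 h, 35° C, ambient air.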

Q: With `C=CC1=C(C(=O)O)N2C(=O)[C@@H](NC(=O)/C(=N\OCC(=O)O)c3csc(N)n3)[C@H]2SC1` [FIX, Cefixime] as the compound, how does the MIC (ECO 190317, alone, read-out: MIC) read?
A: > 128 µg/mL

Q: What about the MIC (ECO 190457, alone, read-out: MIC) of the same compound?
A: 128 µg/mL

Q: And the MIC (ECO UFR16, alone, read-out: MIC)?
A: > 128 µg/mL

Q: And the MIC (ECO UFR20, alone)?
A: 512 µg/mL

Q: What about the MIC (ECO UFR209, alone, read-out: MIC) of the same compound?
A: 1020 µg/mL

Q: And the MIC (strain ECO 4133 (TEM-30, OXA-1), ATB alone)?
A: 0.5 µg/mL

Q: What about the MIC (strain ECO 4133 (TEM-30, OXA-1), CLA @ 4 μg/ml+ ATB) of the same compound?
A: 0.5 µg/mL

Q: What about the MIC (strain ECO 5302 (TEM-1, OXA-1), ATB alone) of the same compound?
A: 0.5 µg/mL

Q: What about the MIC (strain ECO 5302 (TEM-1, OXA-1), CLA @ 4 μg/ml+ ATB) of the same compound?
A: 0.5 µg/mL

Q: And the MIC (strain ECO 131119 (TEM-1, OXA-48), ATB alone)?
A: ≤ 0.25 µg/mL

Q: And the MIC (strain ECO 131119 (TEM-1, OXA-48), CLA @ 4 μg/ml+ ATB)?
A: ≤ 0.25 µg/mL

Q: What about the MIC (strain ECO 180070 (TEM-1, CTX-M-15), ATB alone, read-out: MIC) of the same compound?
A: 128 µg/mL

Q: And the MIC (strain ECO 190314 (CTX-M-1), ATB alone)?
A: 16 µg/mL

Q: And the MIC (strain ECO 190317 (TEM-1, SHV-12, CTX-M-15, OXA-1), ATB alone, read-out: MIC)?
A: > 128 µg/mL

Q: What about the MIC (strain ECO 190317 (TEM-1, SHV-12, CTX-M-15, OXA-1), CLA @ 4 μg/ml+ ATB) of the same compound?
A: 0.5 µg/mL

Q: What about the MIC (strain ECO 190457 (CTX-M-15, OXA-1), ATB alone, read-out: MIC) of the same compound?
A: 128 µg/mL

Q: And the MIC (strain ECO 190457 (CTX-M-15, OXA-1), CLA @ 4 μg/ml+ ATB)?
A: 0.5 µg/mL

Q: What about the MIC (strain ECO 190549 (CTX-M-1), ATB alone) of the same compound?
A: 16 µg/mL

Q: And the MIC (strain ECO 190549 (CTX-M-1), CLA @ 4 μg/ml+ ATB)?
A: 0.5 µg/mL

Q: What about the MIC (strain ECO 200159 (TEM-1, CTX-M-14), ATB alone) of the same compound?
A: 8 µg/mL

Q: And the MIC (strain ECO 200159 (TEM-1, CTX-M-14), CLA @ 4 μg/ml+ ATB)?
A: ≤ 0.25 µg/mL

Q: What about the MIC (strain ECO 200259 (CTX-M-14), ATB alone) of the same compound?
A: 8 µg/mL

Q: What about the MIC (strain ECO 200259 (CTX-M-14), CLA @ 4 μg/ml+ ATB) of the same compound?
A: ≤ 0.25 µg/mL

Q: What about the MIC (strain ECO 200344 (CTX-M-1), CLA @ 4 μg/ml+ ATB) of the same compound?
A: 0.5 µg/mL

Q: And the MIC (strain ECO 260096 (CTX-M-132), ATB alone, read-out: MIC)?
A: > 128 µg/mL

Q: And the MIC (strain ECO 260096 (CTX-M-132), CLA @ 4 μg/ml+ ATB)?
A: 1 µg/mL

Q: What about the MIC (strain ECO 260304 (CTX-M-15), CLA @ 4 μg/ml+ ATB) of the same compound?
A: 0.5 µg/mL

Q: And the MIC (strain ECO 260508 (TEM-1, CTX-M-15, OXA-1), ATB alone, read-out: MIC)?
A: > 128 µg/mL

Q: What about the MIC (strain ECO 260508 (TEM-1, CTX-M-15, OXA-1), CLA @ 4 μg/ml+ ATB) of the same compound?
A: 0.5 µg/mL

Q: And the MIC (strain ECO RGN238 (OXA-1), ATB alone)?
A: ≤ 0.25 µg/mL

Q: And the MIC (strain ECO RGN238 (OXA-1), CLA @ 4 μg/ml+ ATB)?
A: ≤ 0.25 µg/mL

Q: What about the MIC (strain ECO UFR15 (TEM-1, OXA-48), ATB alone) of the same compound?
A: 1 µg/mL

Q: And the MIC (strain ECO UFR15 (TEM-1, OXA-48), CLA @ 4 μg/ml+ ATB)?
A: 1 µg/mL

Q: What about the MIC (strain ECO UFR16 (TEM-1, CTX-M-15, OXA-1, OXA-48), ATB alone, read-out: MIC) of the same compound?
A: > 128 µg/mL

Q: And the MIC (strain ECO UFR16 (TEM-1, CTX-M-15, OXA-1, OXA-48), CLA @ 4 μg/ml+ ATB)?
A: 4 µg/mL

Q: And the MIC (strain ECO UFR17 (TEM-1, CTX-M-15, CMY-2, OXA-1, OXA-181), ATB alone, read-out: MIC)?
A: > 128 µg/mL

Q: What about the MIC (strain ECO UFR17 (TEM-1, CTX-M-15, CMY-2, OXA-1, OXA-181), CLA @ 4 μg/ml+ ATB, read-out: MIC) of the same compound?
A: > 128 µg/mL

Q: What about the MIC (strain ECO UFR18 (CTX-M-15, OXA-204), ATB alone, read-out: MIC) of the same compound?
A: > 128 µg/mL

Q: What about the MIC (strain ECO UFR18 (CTX-M-15, OXA-204), CLA @ 4 μg/ml+ ATB, read-out: MIC) of the same compound?
A: > 128 µg/mL

Q: And the MIC (strain ECO UFR19 (CTX-M-15, CMY-2, OXA-1, OXA-204), ATB alone, read-out: MIC)?
A: > 128 µg/mL

Q: What about the MIC (strain ECO UFR19 (CTX-M-15, CMY-2, OXA-1, OXA-204), CLA @ 4 μg/ml+ ATB, read-out: MIC) of the same compound?
A: > 128 µg/mL

Q: And the MIC (strain ECO UFR20 (SHV-1, CTX-M-15, OXA-1, OXA-232), ATB alone)?
A: 512 µg/mL

Q: What about the MIC (strain ECO UFR20 (SHV-1, CTX-M-15, OXA-1, OXA-232), CLA @ 4 μg/ml+ ATB, read-out: MIC) of the same compound?
A: > 128 µg/mL

Q: What about the MIC (strain ECO UFR61O (TEM-1, KPC-2), CLA @ 4 μg/ml+ ATB, read-out: MIC) of the same compound?
A: 32 µg/mL

Q: And the MIC (strain ECO UFR62 (TEM-1, CTX-M-9, KPC-2), ATB alone, read-out: MIC)?
A: 128 µg/mL

Q: And the MIC (strain ECO UFR62 (TEM-1, CTX-M-9, KPC-2), CLA @ 4 μg/ml+ ATB, read-out: MIC)?
A: 32 µg/mL

Q: What about the MIC (strain ECO UFR74 (SHV-1, DHA-1), ATB alone, read-out: MIC) of the same compound?
A: > 128 µg/mL

Q: And the MIC (strain ECO UFR74 (SHV-1, DHA-1), CLA @ 4 μg/ml+ ATB, read-out: MIC)?
A: > 128 µg/mL

Q: What about the MIC (strain ECO UFR86 (ompC-, ompF-), ATB alone, read-out: MIC) of the same compound?
A: 2 µg/mL

Q: And the MIC (strain ECO UFR86 (ompC-, ompF-), CLA @ 4 μg/ml+ ATB, read-out: MIC)?
A: 2 µg/mL

Q: And the MIC (strain ECO UFR174 (TEM-1, KPC-2, OXA-1), ATB alone)?
A: 8 µg/mL

Q: And the MIC (strain ECO UFR175 (TEM-1, KPC-2, OXA-9), ATB alone)?
A: 64 µg/mL

Q: What about the MIC (strain ECO UFR175 (TEM-1, KPC-2, OXA-9), CLA @ 4 μg/ml+ ATB) of the same compound?
A: 16 µg/mL

Q: And the MIC (strain ECO UFR176 (KPC-3, OXA-9*), ATB alone)?
A: 64 µg/mL

Q: And the MIC (strain ECO UFR184 (CTX-M-15, CMY-4, OXA-1, OXA-204), ATB alone, read-out: MIC)?
A: > 128 µg/mL

Q: What about the MIC (strain ECO UFR184 (CTX-M-15, CMY-4, OXA-1, OXA-204), CLA @ 4 μg/ml+ ATB, read-out: MIC) of the same compound?
A: > 128 µg/mL

Q: And the MIC (strain ECO UFR185 (OXA-48), ATB alone, read-out: MIC)?
A: > 128 µg/mL

Q: What about the MIC (strain ECO UFR185 (OXA-48), CLA @ 4 μg/ml+ ATB, read-out: MIC) of the same compound?
A: > 128 µg/mL

Q: What about the MIC (strain ECO UFR186 (TEM-1, CTX-M-14, OXA-48), CLA @ 4 μg/ml+ ATB) of the same compound?
A: 8 µg/mL

Q: And the MIC (strain ECO UFR189 (TEM-1, CTX-M-15, OXA-48), ATB alone, read-out: MIC)?
A: > 128 µg/mL

Q: What about the MIC (strain ECO UFR189 (TEM-1, CTX-M-15, OXA-48), CLA @ 4 μg/ml+ ATB) of the same compound?
A: 4 µg/mL

Q: And the MIC (strain ECO UFR190 (CTX-M-24, OXA-48), ATB alone)?
A: 64 µg/mL

Q: And the MIC (strain ECO UFR190 (CTX-M-24, OXA-48), CLA @ 4 μg/ml+ ATB)?
A: 8 µg/mL

Q: What about the MIC (strain ECO UFR191 (TEM-1, CTX-M-24, OXA-48), ATB alone, read-out: MIC) of the same compound?
A: > 128 µg/mL

Q: And the MIC (strain ECO UFR191 (TEM-1, CTX-M-24, OXA-48), CLA @ 4 μg/ml+ ATB)?
A: 4 µg/mL

Q: What about the MIC (strain ECO UFR207 (CTX-M-15), ATB alone, read-out: MIC) of the same compound?
A: > 128 µg/mL

Q: And the MIC (strain ECO UFR207 (CTX-M-15), CLA @ 4 μg/ml+ ATB)?
A: 1 µg/mL

Q: And the MIC (strain ECO UFR208 (SHV-12), ATB alone, read-out: MIC)?
A: > 128 µg/mL

Q: And the MIC (strain ECO UFR208 (SHV-12), CLA @ 4 μg/ml+ ATB, read-out: MIC)?
A: > 128 µg/mL

Q: What about the MIC (strain ECO UFR209 (TEM-1, CTX-M-15), ATB alone, read-out: MIC) of the same compound?
A: 1020 µg/mL

Q: What about the MIC (strain ECO UFR209 (TEM-1, CTX-M-15), CLA @ 4 μg/ml+ ATB) of the same compound?
A: 1 µg/mL

Q: And the MIC (strain ECO UFR210 (SHV-12), CLA @ 4 μg/ml+ ATB)?
A: 0.5 µg/mL

Q: What about the MIC (strain ECO UFR211 (TEM-24), ATB alone, read-out: MIC) of the same compound?
A: > 128 µg/mL

Q: What about the MIC (strain ECO UFR212 (CMY-2), ATB alone, read-out: MIC) of the same compound?
A: > 128 µg/mL

Q: And the MIC (strain ECO UFR212 (CMY-2), CLA @ 4 μg/ml+ ATB, read-out: MIC)?
A: > 128 µg/mL

Q: What about the MIC (strain ECO UFR218 (TEM-1, SHV-1, CTX-M-15), ATB alone, read-out: MIC) of the same compound?
A: > 128 µg/mL

Q: What about the MIC (strain ECO UFR218 (TEM-1, SHV-1, CTX-M-15), CLA @ 4 μg/ml+ ATB) of the same compound?
A: 1 µg/mL
